Laboratory results taken from patent US20170275344A1, “POLYPEPTIDES AND USES THEREOF AS A DRUG FOR TREATMENT OF AUTOIMMUNE DISORDERS” (Compugen Ltd., priority 2014, published 2017).
“Also recorded” adds a separate entry of the source.

What was measured:
psoriasis patients = conditions: cited from earlier work
[1] = test system: healthy human skin transplanted onto beige-SCID mice; assay: Humanized psoriasis model: healthy human skin xenotransplants on beige-SCID mice injected with psoriatic patients' PBMCs; assay type: in vivo, mouse
Description: In this model, psoriasis is induced in xenotransplants of healthy human skin transplanted onto beige severe combined immunodeficiency (SCID) mice followed by intradermal (i.d.) injection of IL-2 enriched Peripheral Blood Mononuclear Cells (PBMCs) isolated from blood of psoriasis patients (Nickoloff, 1995; Wrone-Smith, 1996 Gilhar et al., 2002, 2006, 2011). The activity of these compounds was compared to that of Enbrel, a TNF inhibitor which is an approved biological drug for treatment of psoriasis. As a control for model robustness, we used dexamethasone, a steroid with suppressive effects on inflammatory cytokines and chemokines such as TNF-alpha and interferon-gamma which cause severe psoriasis. All treatments were administered intradermally, except for dexamethasone which was given topically.
Study Protocol: A) Healthy human skin pieces with a width of 0.4 mm and surface area of 1.5×1.5 cm were provided from residual skin of routine plastic surgery procedures from the Plastic Surgery Department of the Rambam Medical Center, Israel. In addition, 20 mL blood samples were taken from psoriatic patients. B) Seventy (70) beige-severe combined immunodeficient mice (SCID) (weight˜20-25 g) were included in this study. Normal healthy human donor skin was transplanted onto the beige-SCID mice as previously described (Nickoloff et al., 1995; Wrone-Smith, 1996; Gilhar et al., 2002, 2006, 2011; Kalish et al., 2009) and the mice were divided into 7 groups. C) Peripheral Blood Mononuclear Cells (PBMCs) isolated from psoriatic patients' blood were cultured in the presence of IL-2 [Prospec, 100 U/mL of RPMI 1640 media, 10% human AB serum (Sigma, St. Louis, Mo.), 1% glutamine, 1% antibiotics (media components; Biological Industries, Kibbutz Beit Haemeck, Israel)] for 14 days, as previously described (Gilhar et al, 2002). D) Four weeks following engraftment, each mouse was injected intra-dermally (i.d.) into the grafted skin lesion, with 1×10^7 activated allogeneic enriched PBMCs from psoriatic patients (FIG. 20). Cells from different psoriasis patients were equally distributed between treatment groups so that each patient is represented in each treatment group. E) On the day of PBMCs injection into the skin grafts, mice were divided randomly into treatment groups (n=9-10 mice per group) and administration of all drugs started (FIG. 20). All tested compounds including the vehicle were given intradermally (intralesional), three times a week, except for dexamethasone which was given topically for 14 consecutive days (Table 3).
F) Twenty eight days after starting the injections and treatment, skin was harvested (FIG. 20). Grafts were analyzed for the following psoriatic parameters by histology: epidermal thickening (acanthosis), suprapapillary epidermal thinning (papillomatosis), hyperkeratosis, parakeratosis, orthokeratosis, agranulosis-hypogranulosis, appearance of neutrophils in the upper spinous layer or in the corneal cell layer—Munro microabscess, regular elongation of rete ridges, angiogenesis, edema and dilated tortuous blood vessels in the dermal papilla and mononuclear cell infiltrate in the papillary dermis. Epidermal thickness was measured as detailed below, and HLA-DR, ICAM-1, Ki-67 and immune infiltrates (anti-CD3 stain) were evaluated by immunohistochemistry (IHC).
The entire skin graft was excised and placed in 10% formal saline overnight. Then, the specimens were place in 70% ethanol and were embedded according to the standard H&E protocol. Histological assessment of the skin grafts was performed by light microscopy and evaluated by two blinded observers [the second observer evaluated random slides (about 25% of all slides) to compare the data obtained by the first observer. […] Epidermal thickness was determined with an ocular micrometer at a minimum of 50 points along the epidermis selected to represent points of maximal and minimal thickness.
Representative grafts were allocated for IHC analysis. […]

male DBA-1 mice = assay: Established collagen-induced arthritis (CIA), therapeutic regimen; assay type: in vivo, mouse
Protocol: Bovine type II collagen (CII) (RUNMC in house production, batch 03-04-08) at a concentration of 2 mg/ml in acetic acid 0.05M was emulsified in equal volumes of Freund's complete adjuvant (2 mg/ml of Mycobacterium tuberculosis strain H37Ra; Difco, Detroit, Mich.).
On day 0, 10-12 week old male DBA-1 mice (Janvier Elevage, France) (n=95) were immunized i.d. at the base of the tail with 100 μg of bovine CII. On day 21, mice received an intraperitoneal booster injection of 50 μg of CII dissolved in phosphate buffered saline (PBS), and the onset of arthritis occurred a few days after this booster.
Joint inflammation in each paw was scored visually, using a scale of 0-2 per paw with a maximal score of 8 per animal: 0=non inflamed, 1=mild inflammation, 1.5=marked inflammation, and 2=severe inflammation. Scoring was performed three times a week.
Treatment was started in established CIA early after onset of disease (i.e. therapeutic regimen), when the macroscopic scores per animal were between 0.25 and 1.25 (on a scale of 0-8). The i.p. injections were given three times per week for two weeks, after which the study was terminated and mice were terminally bled to collect serum. Thereafter, the knee and ankle joints were collected and stored in formalin. Histology was scored for inflammation and destruction on an arbitrary scale of 0-3, for five different parameters: • Joint inflammation • Cartilage proteoglycan (PG) depletion • Chondrocyte death • Cartilage erosion • Bone erosion
1. Negative control: PBS 2. Negative control mIgG2A (Bioxcell, BE0085): 10 mg/kg 3. C1ORF32 ECD-Fc (SEQ ID NO:42): 10 mg/kg 4. C1ORF32 ECD-Fc (SEQ ID NO:42): 5 mg/kg 5. Positive control: Enbrel (Wyeth, F01421) 5 mg/kg
Joints were fixed for at least 4 days in 4% formaldehyde, decalcified in 5% formic acid, and subsequently dehydrated and embedded in paraffin. Standard frontal sections of 7 μm were mounted on SuperFrost slides (Menzel-Glaser, Braunschweig, Germany). Haematoxylin and eosin (H&E) staining was performed to study joint inflammation. The severity of inflammation in the joints was scored on a scale of 0-3 (0=no cells, 1=mild cellularity, 2=moderate cellularity, and 3=maximal cellularity). To study proteoglycan (PG) depletion from the cartilage matrix, sections were stained with safranin O (SO) followed by counterstaining with fast green. Depletion of PG was determined using an arbitrary scale of 0-3, ranging from normal, fully stained cartilage to destained cartilage, fully depleted of PGs. Chondrocyte death was scored on a scale of 0-3 ranging from no loss of chondrocyte nuclei to complete empty cartilage surface. The degree of cartilage surface erosion was scored on a scale of 0-3, ranging from no damage to complete loss of articular cartilage. Bone destruction was graded separately on a scale of 0-3, ranging from no damage to the complete loss of bone structure. Histopathological changes in the joint were scored on three semiserial sections of the joint spaced 70 μm apart. Scoring was performed in a blindfolded manner.
Statistical analysis: Disease course data was analyzed using one-way ANOVA with repeated measures, with a Bonferroni's post-test of selected pairs to determine statistical differences between C1ORF32 ECD-Fc (SEQ ID NO:42) and Enbrel treated mice, each as compared to Control Ig (IgG2a) treated group.

[2] = 28 days after start of treatment

Enbrel
patients achieving 75% improvement in the psoriasis area-and-severity index (PASI 75) (psoriasis patients; at week 12): Forty nine
patients achieving PASI 90 (psoriasis patients; clinical trials): 22%
Healthy Skin (number of grafts) [1, 2]: 3/9
Psoriasiform Skin (number of affected grafts, histological evaluation) [1, 2]: 6/9
Total No. of Healthy Grafts (%) [1, 2]: 33%
proliferation index (% Ki-67 positive cells) in the xenografted skin ([1]; IHC, vs vehicle treated group): trend of decrease in proliferation index
Epidermal thickness of graft ([1]; Source of graft (Patient)): 683 μm
Epidermal thickness of graft ([1]; Source of graft (Patient) B): 658 μm
Epidermal thickness of graft ([1]; Source of graft (Patient) C): 770 μm
Epidermal thickness of graft ([1]; Source of graft (Patient) D): 679 μm
Epidermal thickness of graft ([1]; Source of graft (Patient) E): 678 μm
Epidermal thickness of graft ([1]; Source of graft (Patient) G1): 830 μm
Epidermal thickness of graft ([1]; Source of graft (Patient) H): 496 μm
Epidermal thickness of graft ([1]; Source of graft (Patient) K): 296 μm
Epidermal thickness of graft ([1]; Source of graft (Patient) P): 492 μm
Epidermal thickness of grafts, Mean ([1]; mean of 9-10 mice, PBS mean 682): 620 μm
epidermal thickness compared with the vehicle-treated group ([1]; one-tailed t-Test): no substantial effect on epidermal thickness; also recorded: no significant reduction in epidermal thickness
bone erosions (histology) (male DBA-1 mice; 5 mg/kg, day 14): significant reduction of bone erosions
other histological parameters of inflammation and cartilage damage (male DBA-1 mice; 5 mg/kg, day 14): only a trend for protection
arthritis (macroscopic) scores (male DBA-1 mice; positive control, 5 mg/kg i.p. 3x/wk for 2 wks): not as potent in reducing the arthritis scores as expected
